“And” between values parts separate entries of the source, which are not always exact repeats. Equal values may be shown once.
Legend:
Type in all cases: in vivo, Wistar rats
[1] = Perfused brain radiometabolite analysis (30 min p.i.)
Method: The relative amounts of parent tracer and radiometabolites in perfused cerebellum and cerebrum at 30 min p.i. of the tracer was determined in healthy male Wistar rats for [^11C]B-4, [^11C]B-2, [^11C]B-7, and [^11C]B-10. After i.v. administration of about 74 MBq of the radioligand via tail vein under anesthesia (2.5% Isoflurane in O2 at 1 L/min flow rate), rats were sacrificed by administering an overdose of Nembutal (CEVA Santé Animale, 200 mg/kg intraperitoneal). When breathing had stopped, the rats were perfused with saline (Mini Plasco®, Braun, Melsungen, Germany) until the liver turned pale. Brain was isolated, cerebrum and cerebellum were separated and homogenized in 3 mL and 2 mL of CH3CN, respectively, for about 2 min. A volume of 1 mL of this homogenate was diluted with an equal volume of water and a part of this homogenate was filtered through a 0.22 μm filter (Millipore, Bedford, USA). About 0.5 mL of the filtrate was diluted with 0.1 mL of water and spiked with 10 μg of authentic non-radioactive compound (1 mg/mL solution) for identification of the intact tracer. The cerebrum/cerebellum extract was then injected onto an HPLC system consisting of an analytical XBridge® column (C18, 5 μM, 3 mm×100 mm, Waters) eluted with a mixture of 0.05 M NaOAc buffer (pH 5.5) and CH3CN (60:40 v/v) at a flow rate of 0.8 mL/min. The HPLC eluate was collected as 1 mL fractions (fraction collection each minute) after passing through the UV detector (254 nm), and the radioactivity in the fractions was measured using an automated gamma counter.

[2] = Biodistribution studies of 11C tracers; details: for SUV Blood / SUV Cerebellum / SUV Cerebrum total / SUV Cortex / SUV Hippocampus / SUV Striatum: normalized for body weight;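 for Total brain uptake: percentage of injected dose (% ID)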
Method in brief: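 Healthy male Wistar rats (n=3 per time point) received about 11 or 22 MBq tracer i.v. via tail vein under isoflurane; sacrificed at 2, 30 and 60 min p.i. Gamma counting of blood and organs gave %ID and %ID/g, with blood taken as 7% of body mass.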

[3] = Plasma radiometabolite analysis (30 min p.i.); details: n = 2
Method: The metabolic stability of [^11C]B-4, [^11C]B-2, [^11C]B-7, and [^11C]B-10 was studied in healthy male Wistar rats by determination of the relative amounts of parent tracer and radiometabolites in plasma at 30 min p.i. of the tracer. After intravenous (i.v.) administration of about 74 MBq of the radioligand via tail vein under anesthesia (2.5% Isoflurane in O2 at 1 L/min flow rate), rats were sacrificed by decapitation at 30 min p.i. (n=2). Blood was collected in heparin containing tubes (4.5 mL LH PST tubes; BD vacutainer, BD, Franklin Lakes, N.J., USA) and stored on ice to stop the metabolism. Next, the blood was centrifuged for 5 min at 3000 rpm to separate the plasma. About 0.5 mL of plasma was spiked with about 10 μg of the authentic non-radioactive compound (1 mg/mL solution) and injected on to HPLC, which was connected to a Chromolith® performance column (C18, 3 mm×100 mm, Merck KGaA, Darmstadt, Germany). The mobile phase consisted of 0.05 M NaOAc buffer (pH 5.5) (solution A) and CH3CN (solvent B). The following method was used for the analysis: isocratic elution with 100% A for 4 min at a flow rate of 0.5 mL/min, linear gradient to 90% B by 9 min at a flow rate of 1 mL/min, and isocratic elution with mixture of 10% A and 90% B until 12 min. After passing through the UV detector (254 nm), the HPLC eluate was collected as 1 mL fractions (fraction collection each minute) using an automatic fraction collector and the radioactivity of these fractions was measured using an automated gamma counter.

## [11CH3]Oc1ccc(F)c(F)c1C1CCN(c2ccn3c(CC4CC4)nnc3c2Cl)CC1 [[^11C]B-10, 8-chloro-3-(cyclopropylmethyl)-7-[4-[2,3-difluoro-6-[^11C]methoxyphenyl]-1-piperidinyl]-1,2,4-triazolo[4,3-a]pyridine]
[1]
  intact tracer in perfused cerebellum: 96.4%
  intact tracer in perfused cerebrum: 93.1%
  polar metabolite in perfused cerebellum: 3.6%
  polar metabolite in perfused cerebrum: 6.9%
  recovered radioactivity present as intact tracer, on average, in both cerebrum and cerebellum: about 90%
[2]; 2 min p.i.
  % ID Blood: 6.0 % ID and 6.0 ± 1.3 % ID
  % ID Carcass: 38.5 ± 2.5 % ID
  % ID Cerebellum: 0.15 % ID and 0.149 ± 0.054 % ID
  % ID Cerebrum total: 0.46 % ID and 0.456 ± 0.114 % ID
  % ID Cortex: 0.053 ± 0.025 % ID
  % ID Heart: 4.3 ± 0.3 % ID
  % ID Hippocampus: 0.017 ± 0.005 % ID
  % ID Intestines: 8.5 ± 0.2 % ID
  % ID Kidneys: 7.8 ± 1.1 % ID
  % ID Liver: 32.3 ± 3.2 % ID
  % ID Lungs: 1.8 ± 0.1 % ID
  % ID Rest of cerebrum: 0.387 ± 0.084 % ID
  % ID Spleen + Pancreas: 1.5 ± 0.3 % ID
  % ID Stomach: 1.8 ± 0.1 % ID
  % ID Striatum: 0.026 ± 0.012 % ID
  % ID Urine: 0.1 ± 0.0 % ID
  Total brain uptake: 0.64 % ID and 0.64 ± 0.1 % ID
  SUV Blood: 0.90 ± 0.02
  SUV Cerebellum: 1.59 ± 0.06
  SUV Cerebrum total: 1.12 ± 0.03
  SUV Cortex: 1.16 and 1.16 ± 0.04
  SUV Hippocampus: 1.11 ± 0.08
  SUV Striatum: 1.37 ± 0.05
[2]; 30 min p.i.
  % ID Blood: 3.9 ± 0.1 % ID
  % ID Carcass: 62.97 ± 2.4 % ID
  % ID Cerebellum: 0.152 ± 0.023 % ID
  % ID Cerebrum total: 0.637 ± 0.078 % ID
  % ID Cortex: 0.071 ± 0.006 % ID
  % ID Heart: 1.8 ± 0.1 % ID
  % ID Hippocampus: 0.021 ± 0.004 % ID
  % ID Intestines: 9.2 ± 1.4 % ID
  % ID Kidneys: 3.3 ± 0.2 % ID
  % ID Liver: 16.2 ± 0.4 % ID
  % ID Lungs: 0.8 ± 0.0 % ID
  % ID Rest of cerebrum: 0.511 ± 0.063 % ID
  % ID Spleen + Pancreas: 1.1 ± 0.1 % ID
  % ID Stomach: 1.8 ± 0.4 % ID
  % ID Striatum: 0.034 ± 0.005 % ID
  % ID Urine: 0.3 ± 0.0 % ID
  Total brain uptake: 0.80 ± 0.1 % ID
  SUV Blood: 0.50 ± 0.00
  SUV Cerebellum: 1.68 and 1.68 ± 0.05
  SUV Cerebrum total: 1.34 ± 0.03
  SUV Cortex: 1.39 and 1.39 ± 0.05
  SUV Hippocampus: 0.93 ± 0.02
  SUV Striatum: 1.39 ± 0.03
[2]; 60 min p.i.
  % ID Blood: 3.4 % ID and 3.4 ± 0.2 % ID
  % ID Carcass: 63.7 ± 1.8 % ID
  % ID Cerebellum: 0.172 ± 0.030 % ID
  % ID Cerebrum total: 0.598 ± 0.036 % ID
  % ID Cortex: 0.070 ± 0.002 % ID
  % ID Heart: 1.2 ± 0.1 % ID
  % ID Hippocampus: 0.026 ± 0.002 % ID
  % ID Intestines: 11.8 ± 0.0 % ID
  % ID Kidneys: 2.6 ± 0.2 % ID
  % ID Liver: 13.7 ± 1.3 % ID
  % ID Lungs: 0.7 ± 0.0 % ID
  % ID Rest of cerebrum: 0.466 ± 0.033 % ID
  % ID Spleen + Pancreas: 1.4 ± 0.5 % ID
  % ID Stomach: 2.0 ± 0.4 % ID
  % ID Striatum: 0.035 ± 0.005 % ID
  % ID Urine: 0.4 ± 0.1 % ID
  % ID present in liver and intestines: 25.5 % ID
  % ID present in the urinary system: 3.0 % ID
  Total brain uptake: 0.78 ± 0.0 % ID
  SUV Blood: 0.50 ± 0.00
  SUV Cerebellum: 1.52 ± 0.02
  SUV Cerebrum total: 1.19 ± 0.01
  SUV Cortex: 1.08 ± 0.01
  SUV Hippocampus: 0.94 ± 0.01
  SUV Striatum: 1.55 ± 0.01
[3]
  Intact tracer in rat plasma: 45.5 ± 2.1%
  Polar metabolites in rat plasma: 54.5 ± 2.1%

Reference: US20130230459A1, “RADIOLABELLED mGluR2 PET LIGANDS” (Janssen Pharmaceuticals, Inc., priority 2010, published 2013)
